Data as given in patent US9040033B2, “Hydroxypropyl methyl cellulose acetate succinate with enhanced acetate and succinate substitution” (Dow Global Technologies LLC, priority 2010, dated 2015).

Assays:
[1] = Phenytoin precipitation inhibition in PBS containing dissolved polymer; assay type: physicochemical; details: PBS pH 6.5, 37° C., 500 μg/mL if all dissolved
Experimental: Phenyloin was dissolved in methanol at a concentration of 18 mg/mL. The polymers were dissolved in PBS (20 mM sodium phosphate (Na2HPO4), 47 mM potassium phosphate (KH2PO4), 87 mM NaCl, and 0.2 mM KCl, adjusted to pH 6.5 with NaOH) at a concentration of 1.5 mg/mL. […] HPLC was performed using a ZORBAX® RX-C18 column (4.6×75 mm, 3.5 μm, Agilent Technologies) and a mobile phase comprising 0.2% H3PO4 in water, at a flow rate of 1.0 mL/min; 10 μL of each solution was injected. […] HPMCAS-K(3) and HPMCAS-LG have similar degrees of succinate substitution ([…], respectively (see Table 7)), but greatly different degrees of acetate substitution (1.41 and 0.47, respectively).

[2] = Microcentrifuge dissolution of 25 wt % phenytoin spray-dried dispersions in MFDS; assay type: physicochemical; details: dissolved phenytoin; SDD or bulk in MFDS pH 6.5, 37° C.
Text: In another separate embodiment, compositions containing the HPMCAS polymers are concentration enhancing. The term “concentration enhancing” means that the polymer is present in a sufficient amount in the composition so as to improve, or increase, the concentration of dissolved active agent in an aqueous use environment relative to a control composition free from the polymer. As used herein, a “use environment” can be either the in vivo environment of the gastrointestinal tract, subdermal, intranasal, buccal, intrathecal, ocular, intraaural, subcutaneous spaces, vaginal tract, arterial and venous blood vessels, pulmonary tract or intramuscular tissue of an animal, such as a mammal and particularly a human, or the in vitro environment of a test solution, such as phosphate buffered saline (PBS), simulated intestinal buffer without enzymes (SIN), a Model Fasted Duodenal (MFD) solution, or a solution to model the fed state. Concentration enhancement may be determined through either in vitro dissolution tests or through in vivo tests. It has been determined that enhanced active agent concentrations in in vitro dissolution tests in such in vitro test solutions provide good indicators of in vivo performance and bioavailability. An appropriate PBS solution is an aqueous solution comprising 20 mM sodium phosphate (Na2HPO4), 47 mM potassium phosphate (KH2PO4), 87 mM NaCl, and 0.2 mM KCl, adjusted to pH 6.5 with NaOH. An appropriate SIN solution is 50 mM KH2PO4 adjusted to pH 7.4. […] In particular, a composition may be dissolution-tested by adding it to an in vitro test solution and agitating to promote dissolution, or by performing a membrane-permeation test as described in U.S. Published Patent Application No. 2008/0262107, which is incorporated herein by reference. Spray-dried dispersions (SDDs) comprising 25 wt % phenyloin in HPMCAS-K(3), HPMCAS-K(1), HPMCAS-HG, and HPMCAS-LG were prepared as described in section VIII. […] Dissolved concentrations were measured by HPLC.

For `O=C1NC(=O)C(c2ccccc2)(c2ccccc2)N1` [Phenytoin bulk, Phenytoin], the C1200 ([1]; dissolved phenytoin at 1200 min) was 80 µg/mL, the AUC90 ([1]; dissolved phenytoin, 0-90 min) was 6,500 min * μg/mL and the Cmax90 ([1]; dissolved phenytoin, maximum in first 90 min) was 120 µg/mL. The AUC90 [2] was 3,500 min * μg/mL, the C1200 [2] was 40 µg/mL and the Cmax90 [2] was 40 µg/mL.
